Reference: PMC10012588, “Engineering Streptomyces albulus to enhance ε-poly-L-lysine production by introducing a polyphosphate kinase-mediated ATP regeneration system” (Microbial Cell Factories, 2023)

Tests used:
Assay type in all cases: biochemical
PPK1 [1] = target: T1, PPK1 (Streptomyces noursei, UniProt A0A2N8P4S7); assay: change of ATP concentration, reverse reaction; settings: 0-10 uM ATP, 5 uM ADP, 5 uM polyP6, 20 mM MgSO4, 50 mM Tris-HCl pH 8.0, 30 °C, 2 h
T1 construct: gene ppk; gene amplified from the WG608 genome

PPK1 [2] = target: T1, PPK1; assay: ATP formation from ADP and polyPn; settings: 5 uM ADP, 5 uM polyP (polyP6 best), 20 mM MgSO4, 50 mM Tris-HCl pH 8.0, 30 °C, 2 h
PPK2B^cg = PPK2B^cg (Corynebacterium glutamicum, UniProt Q8NM65); assay: ATP formation from ADP and polyPn; settings: 5 uM ADP, 5 uM polyP (polyP6 best), 20 mM MgSO4, 50 mM Tris-HCl pH 8.0, 30 °C, 2 h
PPK2C^pa = target: T2, PPK2C^pa (Pseudomonas aeruginosa, UniProt Q9HYF1); assay: ATP formation from ADP and polyPn; settings: 5 uM ADP, 5 uM polyP (polyP6 best), 20 mM MgSO4, 50 mM Tris-HCl pH 8.0, 30 °C, 2 h
T2 construct: gene PA3455
T2 sequence (Q9HYF1 1-496): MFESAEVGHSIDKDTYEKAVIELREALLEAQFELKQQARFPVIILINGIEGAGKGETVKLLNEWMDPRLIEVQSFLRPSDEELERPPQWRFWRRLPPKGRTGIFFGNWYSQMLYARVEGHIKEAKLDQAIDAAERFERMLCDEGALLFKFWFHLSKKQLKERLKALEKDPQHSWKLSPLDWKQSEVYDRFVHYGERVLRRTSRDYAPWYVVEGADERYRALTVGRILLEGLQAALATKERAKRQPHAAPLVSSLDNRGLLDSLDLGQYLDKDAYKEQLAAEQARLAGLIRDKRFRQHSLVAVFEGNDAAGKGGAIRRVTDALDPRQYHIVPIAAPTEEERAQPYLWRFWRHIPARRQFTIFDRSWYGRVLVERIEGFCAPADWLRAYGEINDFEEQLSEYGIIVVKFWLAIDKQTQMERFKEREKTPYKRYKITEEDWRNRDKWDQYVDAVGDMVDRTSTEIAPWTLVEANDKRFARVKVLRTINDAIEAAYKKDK

Nc1ncnc2c1ncn2[C@@H]1O[C@H](COP(=O)(O)OP(=O)(O)OP(=O)(O)O)[C@@H](O)[C@H]1O [ATP]
change of ATP concentration, reverse reaction (PPK1 [1]): PPK1 catalyzes polyP6 polymerization and ATP is degraded into ADP

Nc1ncnc2c1ncn2[C@@H]1O[C@H](COP(=O)(O)OP(=O)(O)O)[C@@H](O)[C@H]1O [ADP]
ATP formation from ADP and polyPn (PPK1 [2]): The activities of the three PPKs were compared in vitro using ADP, and different polyPs | ATP formation from ADP and polyPn (PPK2B^cg): PPK2B^cg exhibited the highest ATP production ability | ATP formation from ADP and polyPn (PPK2C^pa): The activities of the three PPKs were compared in vitro using ADP, and different polyPs
